Measurements taken from patent US8192962B2, “Processes for detecting toxic substances” (Daikin Industries, Ltd., priority 2001, dated 2012).

System: Mitochondria-located protein genes
Assay: DNA chip mRNA expression in yeast, mitochondria-located protein genes (Table 2)
Type: cell-based, Saccharomyces cerevisiae S288C
Conditions: cells incubated two hours with the chemical substance
In short: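 Ratios compare mRNA levels in stressed and control S. cerevisiae. Each toxicant was applied for two hours to log-phase cultures at 25° C. at a sub-lethal, growth-inhibiting level; fluorescent cDNA (Cy3- or Cy5-dUTP) was hybridized to a genome-wide yeast chip for over 12 h at 65° C.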

Measured: The level of expressed mRNA in the presence of chemical substance/The level of expressed mRNA in the absence of chemical substance

[Cl][Cd][Cl] [(2), CdCl2]
1.3: yeast gene YKL016C | yeast gene YLR395C | yeast gene YMR023C | yeast gene YNL104C
1.8: yeast gene YDL181W | yeast gene YML054C | yeast gene YMR267W | yeast gene YNL055C
2.1: yeast gene YOR020C
1.4: yeast gene YBR044C | yeast gene YKR066C | yeast gene YNL073W | yeast gene YOR100C
2.5: yeast gene YOR316C
1.1: yeast gene YDR079W | yeast gene YDR377W | yeast gene YJR077C | yeast gene YJR121W | yeast gene YKL141W | yeast gene YLR038C | yeast gene YLR295C | yeast gene YMR089C | yeast gene YMR152W | yeast gene YPR134W
0.5: yeast gene YLL041C | yeast gene YOR187W
4.5: yeast gene YLR348C
2.6: yeast gene YOR176W
2.3: yeast gene YDR258C | yeast gene YPR037C
5.4: yeast gene YHR008C
1.5: yeast gene YCL057W | yeast gene YJL166W | yeast gene YOR037W
2.2: yeast gene YAL039C
0.7: yeast gene YBR221C | yeast gene YEL039C | yeast gene YIL155C | yeast gene YJL102W | yeast gene YKL003C | yeast gene YKL194C | yeast gene YMR203W
1.0: yeast gene YBR091C | yeast gene YBR185C | yeast gene YBR282W | yeast gene YDL067C | yeast gene YDL198C | yeast gene YDR529C | yeast gene YFL016C | yeast gene YGL018C | yeast gene YGR062C | yeast gene YJL096W | yeast gene YJL133W | yeast gene YLR259C | yeast gene YOL096C | yeast gene YPL040C | yeast gene YPL134C | yeast gene YPR024W | yeast gene YPR047W
3.5: yeast gene YGR028W
1.6: yeast gene YDR231C | yeast gene YGL191W | yeast gene YGR076C | yeast gene YGR174C | yeast gene YJL180C | yeast gene YNL256W
2.0: yeast gene YDR178W
0.9: yeast gene YBL030C | yeast gene YBL038W | yeast gene YBL099W | yeast gene YBR122C | yeast gene YBR251W | yeast gene YEL024W | yeast gene YER178W | yeast gene YGR082W | yeast gene YML129C | yeast gene YNL071W
1.7: yeast gene YMR035W | yeast gene YMR083W | yeast gene YOR130C | yeast gene YPL262W
2.8: yeast gene YCR083W
0.6: yeast gene YLR304C
3.0: yeast gene YGR008C
1.9: yeast gene YJR045C | yeast gene YPL215W
1.2: yeast gene YCR046C | yeast gene YDR298C | yeast gene YGR244C | yeast gene YML120C | yeast gene YOR142W | yeast gene YOR150W | yeast gene YPL135W
2.7: yeast gene YKL142W
0.8: yeast gene YBL022C | yeast gene YBR003W | yeast gene YDR347W | yeast gene YGL187C | yeast gene YKL148C | yeast gene YKL170W
